Reference: PMC5845537 (Frontiers in Pharmacology, 2018)

What was measured:
Sprague-Dawley rats = test: Rat object recognition (OR) task after subchronic PCP; type: in vivo; conditions: p < 0.05
Experimental: Subchronic PCP treatment: The subPCP administration regimen used in rats was conducted as described in ([Goetghebeur and Dias, 2009]), which is a reliable method for inducing deficits in our hands. Rats in the subPCP experiments received injections of 5 mg/mL PCP or vehicle (saline) s.c. at a 1 mL/kg injection volume twice per day for 7 days. […] The mouse subPCP regimen was conducted as described in [Pedersen et al. (2014)]. Briefly, mice received vehicle or PCP (1.3 mg/mL concentration, 10 mL/kg injection volume) s.c once per day for 14 days followed by a 7-day washout prior to experimentation.
The behavioral procedures for the rat OR task were conducted as described in [du Jardin et al. (2014)]. […] OR task sessions were recorded by a digital camera situated above the open field. Exploration time for each object was recorded with a stopwatch from the videos. […]
The primary dependent measure for the OR and object placement tasks was a novel object or novel placement preference score, which were calculated from raw object investigation times using the following equation: Preference Score = ITN/(ITN + ITF)^∗100, where ITN represents the investigation time for the novel object or placement, and ITF represents the investigation for the familiar object or placement. Total exploration times from the information and test trials were analyzed for OP and OR experiments. […]

GABAB receptor = target: T1, GABAB receptor (Rattus norvegicus, UniProt Q9Z0U4); test: Ex vivo autoradiography, GABAB receptor saturation binding ([3H]CGP54626), medial prefrontal cortex
T1 construct: 12 μm coronal sections were collected from an area ranging from approximately +4.2 mm to +2.3 mm anterior to Bregma; from tissue; host or cells: rat brain cryosections, medial prefrontal cortex (prelimbic and infralimbic)
T1 sequence (Q9Z0U4 17-960 limits assumed): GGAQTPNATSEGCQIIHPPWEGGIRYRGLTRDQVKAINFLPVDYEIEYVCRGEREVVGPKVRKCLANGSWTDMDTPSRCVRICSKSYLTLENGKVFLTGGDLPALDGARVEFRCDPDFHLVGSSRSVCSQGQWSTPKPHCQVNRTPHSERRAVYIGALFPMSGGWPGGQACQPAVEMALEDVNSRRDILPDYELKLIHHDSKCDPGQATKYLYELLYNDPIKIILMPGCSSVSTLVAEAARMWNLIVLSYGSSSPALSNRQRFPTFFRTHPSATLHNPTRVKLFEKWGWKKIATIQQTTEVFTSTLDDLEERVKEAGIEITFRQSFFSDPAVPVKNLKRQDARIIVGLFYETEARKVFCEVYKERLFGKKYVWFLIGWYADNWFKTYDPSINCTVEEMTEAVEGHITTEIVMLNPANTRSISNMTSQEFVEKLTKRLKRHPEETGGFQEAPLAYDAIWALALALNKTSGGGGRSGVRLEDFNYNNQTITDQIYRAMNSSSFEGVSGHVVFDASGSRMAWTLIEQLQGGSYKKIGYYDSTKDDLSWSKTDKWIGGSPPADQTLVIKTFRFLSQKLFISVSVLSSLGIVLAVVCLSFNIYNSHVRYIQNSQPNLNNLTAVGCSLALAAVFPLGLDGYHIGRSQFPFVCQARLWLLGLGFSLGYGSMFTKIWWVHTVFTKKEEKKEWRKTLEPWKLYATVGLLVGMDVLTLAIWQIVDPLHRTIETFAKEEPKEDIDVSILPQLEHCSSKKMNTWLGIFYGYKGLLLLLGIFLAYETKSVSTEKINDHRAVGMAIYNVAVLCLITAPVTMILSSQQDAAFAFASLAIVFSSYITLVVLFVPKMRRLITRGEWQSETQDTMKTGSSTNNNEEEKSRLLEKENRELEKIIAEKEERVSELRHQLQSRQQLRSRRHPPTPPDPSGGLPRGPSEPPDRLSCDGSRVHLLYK
T1 sequence (O88871 41-940 partner): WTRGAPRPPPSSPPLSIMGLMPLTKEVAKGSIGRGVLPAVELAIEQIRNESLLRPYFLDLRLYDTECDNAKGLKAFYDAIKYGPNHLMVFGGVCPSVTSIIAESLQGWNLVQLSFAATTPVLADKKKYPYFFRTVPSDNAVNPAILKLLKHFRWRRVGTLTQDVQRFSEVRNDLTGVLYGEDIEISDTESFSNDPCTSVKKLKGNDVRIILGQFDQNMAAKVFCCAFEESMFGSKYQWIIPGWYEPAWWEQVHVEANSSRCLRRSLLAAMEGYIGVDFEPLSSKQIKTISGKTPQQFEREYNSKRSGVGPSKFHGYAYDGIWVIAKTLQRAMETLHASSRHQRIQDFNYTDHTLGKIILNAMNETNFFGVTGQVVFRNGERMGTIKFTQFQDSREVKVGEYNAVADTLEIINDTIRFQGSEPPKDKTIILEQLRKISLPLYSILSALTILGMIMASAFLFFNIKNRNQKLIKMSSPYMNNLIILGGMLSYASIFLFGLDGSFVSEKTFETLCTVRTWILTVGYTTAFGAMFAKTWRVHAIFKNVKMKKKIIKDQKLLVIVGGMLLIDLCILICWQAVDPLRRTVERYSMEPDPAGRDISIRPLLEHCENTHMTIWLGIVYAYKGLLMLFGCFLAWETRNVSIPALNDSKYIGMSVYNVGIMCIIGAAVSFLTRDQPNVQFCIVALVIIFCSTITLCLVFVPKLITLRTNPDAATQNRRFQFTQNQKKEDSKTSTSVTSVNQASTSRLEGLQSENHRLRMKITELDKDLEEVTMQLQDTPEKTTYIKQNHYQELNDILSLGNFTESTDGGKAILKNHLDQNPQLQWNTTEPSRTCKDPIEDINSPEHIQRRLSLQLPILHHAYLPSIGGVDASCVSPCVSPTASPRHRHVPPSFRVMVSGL
Text: Rats used in ex vivo autoradiography (EVA) experiments were randomly assigned to one of four experimental groups characterized by either subchronic saline or PCP (as described above) along with either vehicle or vortioxetine-infused food (1.8 g vortioxetine/kg food weight, as described in the attentional set shifting task). On day 8 of PCP withdrawal, rats were anesthetized using CO2 and killed by decapitation. Brains were quickly and gently removed from the skull, flash frozen on powdered dry ice, and stored at -20°C until sectioning. Later, 12 μm coronal sections were collected from an area ranging from approximately +4.2 mm to +2.3 mm anterior to Bregma ([Paxinos and Watson, 1998]) using a cryostat (MicroM, Germany) and were thaw-mounted on glass microscope slides. This range of coronal slices was chosen in order to study the prelimbic and infralimbic subregions of the medial prefrontal cortex, given the importance of these regions in tests of executive function such as the attentional set shifting task ([Ng et al., 2007]). After the tissue mounted on the microscope slides had dried thoroughly (in order to reduce damage from freezing), slides were packed into slide boxes with desiccator pellets, and stored at -20°C for use in EVA saturation binding and competition experiments.
Each of the EVA procedures used in this study are variations on a similar theme. On the day of an experiment, slide-boxes were defrosted under a constant stream of air at room temperature until the boxes were dry and equilibrated with the environment in terms of temperature. This step was undertaken in order to ensure brain tissue was not damaged by frosting due to a sudden change in humidity. Prior to any binding experiments, slides were preincubated in the appropriate preincubation buffer and dried at room temperature. Subsequently, tissue was incubated in an assay buffer containing a radioligand appropriate for the receptor of interest, then rinsed in assay buffer, and dried overnight in a vacuum desiccator. Specific information on the contents of the preincubation buffers, assay buffers and other assay conditions are listed in Table 2. Finally, slides were opposed to a tritium-sensitive phosphor screen (Fuji imaging plate, GE Healthcare, Pittsburgh, PA, United States) for 5 days before being read in a phosphorimager (Typhoon FLA7000, GE Healthcare). Analysis methods are listed below under statistical analyses.
In saturation binding experiments, the concentration of the relevant radioligand in the assay buffer was systematically varied in order to determine the KD and Bmax of the receptor in question. At each radioligand concentration, the non-specific binding was determined on a separate slide by including a high concentration of a non-radioactive competitor ligand in the assay buffer along with the radioligand. For GABAA receptor saturation binding experiments, [^3H]muscimol was examined in quarter log steps ranging from 0.56 to 300 nM. For GABAB receptor saturation binding experiments, [^3H]CGP54626 was examined in quarter log steps ranging from 0.17 to 100 nM.
For saturation binding studies, the primary dependent measures were pKD and Bmax. First, a standard curve was generated by measuring optical intensity from a slide of tritium standards (American Radiolabeled Chemicals, St. Louis, MO, United States) included in the slide cassette during exposure. A linear regression was performed to determine the relationship between intensity and bound radioactivity (measured on the standards in units of μCi/g). Next, average intensity values from the non-specific bound condition for each concentration of radioligand was subtracted from intensity values from the total bound condition to produce a measure of specific binding for each radioligand concentration. These optical intensity values were transformed into bound radioactivity (expressed as nCi/mg) measurements by interpolation from the standard curve noted above. […]

5-HT3 receptor = 5-HT3 receptor occupancy (literature); type: in vivo, rat; conditions: 0.22 g/kg subchronic dose; estimated based on known SERT:5-HT3 receptor occupancy relationships; ref Leiser et al., 2014

In the case of Cl.c1ccc(C2(N3CCCCC3)CCCCC2)cc1 [PCP, 1-(1-phenylcyclohexyl)-piperidine hydrochloride], the “OR performance (novel object preference score)” value (Sprague-Dawley rats; subPCP alone vs vehicle-treated controls) was “significant impairments” and the “effect of treatment on [3H]CGP54626 Bmax (GABAB receptor)” value (GABAB receptor; subPCP vs saline/vehicle group, p < 0.05) was “significant reductions”.

In the case of Cc1ccc(Sc2ccccc2N2CCNCC2)c(C)c1 [vortioxetine], the “attenuation of subPCP-induced OR impairment (preference score)” value (Sprague-Dawley rats; subPCP-treated rats, acute 10 mg/kg 1 h s.c.) was “significantly attenuated”, the “[3H]CGP54626 Bmax (GABAB receptor), PCP/vortioxetine vs PCP/vehicle” value (GABAB receptor; subchronic vortioxetine combined with subPCP) was “no significant differences” and the “occupancy at 5-HT3 receptors” value (5-HT3 receptor) was “full occupancy”.
